Data: PubChem BioAssay AID330 (DTP/NCI, 2004)
Several values for one entry are separate records, joined by “and”; a condition that tells them apart may be missing. Equal values may be shown once. Toxic doses and inconclusive results are not listed. The calls were made as follows: active = survival T/C of 150% or more; inactive = T/C below 125% in these data.

Tested on: P388 leukemia ip, CD2F1 mice, survival T/C
Test: NCI In Vivo Anticancer Drug Screen. Data for tumor model P388 Leukemia (intraperitoneal) in CD2F1 (CDF1) mice
Conditions: endpoint: median survival time, higher = longer survival
Procedure, shortened: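 Mice carrying the transplanted tumor received test compound or vehicle. Survival was recorded in each group, and the value is the treated-group measurement divided by that of the vehicle-treated control group.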

[1] = dose: 50.0 mg/kg/injection, schedule: Q01DX009 (ip), vehicle: saline with Tween-80
[2] = dose: 50.0 mg/kg/injection, schedule: Q01DX009 (ip), vehicle: Klucel (hydroxypropylcellulose) (HPC)
[3] = dose: 100.0 mg/kg/injection, schedule: Q01DX009 (ip), vehicle: Klucel (hydroxypropylcellulose) (HPC)
[4] = dose: 100.0 mg/kg/injection, schedule: Q01DX001 (ip), vehicle: saline with Tween-80
[5] = dose: 200.0 mg/kg/injection, schedule: Q01DX001 (ip), vehicle: saline with Tween-80
[6] = dose: 400.0 mg/kg/injection, schedule: Q01DX001 (ip), vehicle: saline with Tween-80
[7] = dose: 50.0 mg/kg/injection, schedule: Q01DX005 (ip), vehicle: Klucel (hydroxypropylcellulose) (HPC)
[8] = dose: 50.0 mg/kg/injection, schedule: Q01DX005 (ip), vehicle: saline with Tween-80
[9] = dose: 100.0 mg/kg/injection, schedule: Q01DX005 (ip), vehicle: saline with Tween-80
[10] = dose: 200.0 mg/kg/injection, schedule: Q01DX005 (ip), vehicle: saline with Tween-80

Measured: T/C

C#CC(OC(=O)NC1CCCCC1)(c1ccccc1)c1ccccc1
active: dose: 33.0 mg/kg/injection, schedule: Q01DX009 (ip), vehicle: saline with Tween-80 163 % of control | dose: 75.0 mg/kg/injection, schedule: Q04DX003 (ip), vehicle: saline with Tween-80 163 % of control
inactive: dose: 4.4 mg/kg/injection, schedule: Q01DX009 (ip), vehicle: saline with Tween-80 100 % of control | dose: 6.6 mg/kg/injection, schedule: Q01DX009 (ip), vehicle: saline with Tween-80 98 % of control | dose: 10.0 mg/kg/injection, schedule: Q01DX009 (ip), vehicle: saline with Tween-80 93 % of control | dose: 15.0 mg/kg/injection, schedule: Q01DX009 (ip), vehicle: saline with Tween-80 100 % of control | dose: 22.0 mg/kg/injection, schedule: Q04DX003 (ip), vehicle: saline with Tween-80 118 % of control | dose: 25.0 mg/kg/injection, schedule: Q04DX003 (ip), vehicle: saline with Tween-80 108 % of control | dose: 33.0 mg/kg/injection, schedule: Q04DX003 (ip), vehicle: saline with Tween-80 122 % of control | [1] 102 % of control

CCOc1ccc(C[Se][Se]Cc2ccc(OCC)cc2)cc1
inactive: [2] 109 % of control | [3] 91 % of control

Cc1cc(O)c2c(c1)C(=O)c1cc(O)cc(OC3OC(CO)C(O)C(O)C3O)c1C2=O (stereo not drawn)
inactive: dose: 5.0 mg/kg/injection, schedule: Q01DX009 (ip), vehicle: saline 105 % of control | dose: 10.0 mg/kg/injection, schedule: Q01DX009 (ip), vehicle: saline 105 % of control | dose: 20.0 mg/kg/injection, schedule: Q01DX009 (ip), vehicle: saline 89 % of control

O=C(O)Cc1c[nH]c2ccccc12
inactive: [4] 105 % of control | [5] 100 % of control | [6] 99 % of control

CCOC(=O)c1cnc2c(C(F)(F)F)cccc2c1Nc1ccc2c(c1)OCO2
inactive: dose: 60.0 mg/kg/injection, schedule: Q01DX005 (ip), vehicle: Klucel + Tween-80 100 % of control | dose: 120.0 mg/kg/injection, schedule: Q01DX005 (ip), vehicle: Klucel + Tween-80 103 % of control | dose: 240.0 mg/kg/injection, schedule: Q01DX005 (ip), vehicle: Klucel + Tween-80 97 % of control

O=CN1CCc2cc3c(cc2C1Cc1cc2c(cc1Br)OCO2)OCO3 (stereo not drawn)
inactive: dose: 25.0 mg/kg/injection, schedule: Q01DX001 (ip), vehicle: saline + alcohol 99 % of control | dose: 50.0 mg/kg/injection, schedule: Q01DX001 (ip), vehicle: saline + alcohol 103 % of control | dose: 100.0 mg/kg/injection, schedule: Q01DX001 (ip), vehicle: saline + alcohol 100 % of control

N#CCCN(CCc1ccccn1)C(=S)Nc1cccc(C(F)(F)F)c1
inactive: dose: 50.0 mg/kg/injection, schedule: Q04DX003 (ip), vehicle: saline with Tween-80 99 % of control | dose: 100.0 mg/kg/injection, schedule: Q04DX003 (ip), vehicle: saline with Tween-80 101 % of control | dose: 200.0 mg/kg/injection, schedule: Q04DX003 (ip), vehicle: saline with Tween-80 100 % of control | dose: 400.0 mg/kg/injection, schedule: Q04DX003 (ip), vehicle: saline with Tween-80 101 % of control

COC(=O)C1C(CO)ON2CCC(OC)(OC)C12 (stereo not drawn)
inactive: dose: 50.0 mg/kg/injection, schedule: Q01DX005 (ip), vehicle: saline 99 % of control | dose: 100.0 mg/kg/injection, schedule: Q01DX005 (ip), vehicle: saline 92 % of control | dose: 200.0 mg/kg/injection, schedule: Q01DX005 (ip), vehicle: saline 96 % of control

CC1(C)CC(C)(OC(=O)c2ccc(F)cc2)[N+]([O-])=N1 (stereo not drawn)
inactive: dose: 4.7 mg/kg/injection, schedule: Q01DX009 (ip), vehicle: other 115 % of control | dose: 9.4 mg/kg/injection, schedule: Q01DX009 (ip), vehicle: other 112 % of control | dose: 18.8 mg/kg/injection, schedule: Q01DX009 (ip), vehicle: other 106 % of control | dose: 37.5 mg/kg/injection, schedule: Q01DX009 (ip), vehicle: other 120 % of control | dose: 75.0 mg/kg/injection, schedule: Q01DX009 (ip), vehicle: other 106 % of control | dose: 150.0 mg/kg/injection, schedule: Q01DX009 (ip), vehicle: other 101 % of control

Cc1cc(NCCCN(C)C)c2cc3ccc4cccc5ccc(c2n1)c3c45
inactive: [1] 109 % of control | dose: 100.0 mg/kg/injection, schedule: Q01DX009 (ip), vehicle: saline with Tween-80 108 % of control

CC(C)N(C(=S)Sc1c2ccccc2c(Br)c2ccccc12)C(C)C
inactive: dose: 12.5 mg/kg/injection, schedule: Q01DX005 (ip), vehicle: Klucel (hydroxypropylcellulose) (HPC) 108 % of control | dose: 25.0 mg/kg/injection, schedule: Q01DX005 (ip), vehicle: Klucel (hydroxypropylcellulose) (HPC) 102 % of control | [7] 99 % of control and 89 % of control

COc1cc(C(=O)C(C=O)c2ccccc2)c([N+](=O)[O-])cc1OC (stereo not drawn)
inactive: [7] 94 % of control | dose: 100.0 mg/kg/injection, schedule: Q01DX005 (ip), vehicle: Klucel (hydroxypropylcellulose) (HPC) 98 % of control | dose: 200.0 mg/kg/injection, schedule: Q01DX005 (ip), vehicle: Klucel (hydroxypropylcellulose) (HPC) 92 % of control

Cc1cc(NC(=O)C(=O)CC(=O)c2ccc(Cl)s2)no1
inactive: dose: 100.0 mg/kg/injection, schedule: Q04DX002 (ip), vehicle: saline with Tween-80 99 % of control | dose: 200.0 mg/kg/injection, schedule: Q04DX002 (ip), vehicle: saline with Tween-80 104 % of control | dose: 400.0 mg/kg/injection, schedule: Q04DX002 (ip), vehicle: saline with Tween-80 107 % of control

COc1c2c(c(O)c3c1C(=O)c1cccc(O)c1C3=O)C(OC1CC(N)C(O)C(C)O1)CC(O)(C(C)=O)C2 (stereo not drawn)
inactive: dose: 12.5 mg/kg/injection, schedule: Q04DX003 (ip), vehicle: water 118 % of control | dose: 25.0 mg/kg/injection, schedule: Q04DX003 (ip), vehicle: water 118 % of control | dose: 50.0 mg/kg/injection, schedule: Q04DX003 (ip), vehicle: water 100 % of control

CCc1c(Cc2[nH]c(C=O)c(C)c2CC)[nH]c(C=O)c1C
inactive: [8] 100 % of control | [9] 100 % of control | [10] 100 % of control

CCN1/C(=C/C=C/C=C\C=C\c2sc3ccc4ccccc4c3[n+]2CC)Sc2ccc3ccccc3c21
active: dose: 1.56 mg/kg/injection, schedule: Q04DX002 (ip), vehicle: saline with Tween-80 153 % of control and 168 % of control | dose: 3.12 mg/kg/injection, schedule: Q04DX002 (ip), vehicle: saline with Tween-80 166 % of control | dose: 6.25 mg/kg/injection, schedule: Q04DX002 (ip), vehicle: saline with Tween-80 156 % of control and 171 % of control | dose: 12.5 mg/kg/injection, schedule: Q04DX002 (ip), vehicle: saline with Tween-80 159 % of control and 171 % of control and 186 % of control

Cn1c(-c2nc3ccccc3n2C)nc2ccccc21
inactive: [8] 102 % of control | [9] 98 % of control | [10] 102 % of control

Cc1ccc(S(=O)(=O)/N=C\[N-][n+]2ccccc2C)cc1
inactive: [2] 101 % of control | [3] 93 % of control | dose: 200.0 mg/kg/injection, schedule: Q01DX009 (ip), vehicle: Klucel (hydroxypropylcellulose) (HPC) 92 % of control

COc1ccc(CC(=O)c2ccc(OC)cc2O)cc1
inactive: [4] 103 % of control | [5] 104 % of control | [6] 101 % of control

CCOP(=Nc1cc(C)ccc1C)(OCC)OCC
inactive: dose: 12.5 mg/kg/injection, schedule: Q01DX009 (ip), vehicle: Klucel (hydroxypropylcellulose) (HPC) 100 % of control | dose: 25.0 mg/kg/injection, schedule: Q01DX009 (ip), vehicle: Klucel (hydroxypropylcellulose) (HPC) 94 % of control | dose: 50.0 mg/kg/injection, schedule: Q01DX001 (ip), vehicle: Klucel (hydroxypropylcellulose) (HPC) 103 % of control | [2] 103 % of control and 93 % of control | dose: 100.0 mg/kg/injection, schedule: Q01DX001 (ip), vehicle: Klucel (hydroxypropylcellulose) (HPC) 100 % of control | dose: 200.0 mg/kg/injection, schedule: Q01DX001 (ip), vehicle: Klucel (hydroxypropylcellulose) (HPC) 96 % of control
